Data as given in PubChem BioAssay (NCI).
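48-hour exposure; five concentrations; linearly interpolated endpoints. GI50 = concentration required for 50% inhibition of growth. TGI: total growth inhibition.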

How the values were obtained:
Assay in all cases: DTP human tumour cell line panel, 48 h; in the data active means GI50 below about 0.43 µM; inactive means the rest
[1] = tested on: UACC-257 melanoma
[2] = tested on: CAKI-1 renal
[3] = tested on: LOX IMVI melanoma
[4] = tested on: A498 renal
[5] = tested on: DU-145 prostate
[6] = tested on: MALME-3M melanoma
[7] = tested on: U251 CNS
[8] = tested on: SF-539 CNS
[9] = tested on: HOP-92 NSCLC
[10] = tested on: HT29 colon
[11] = tested on: SNB-75 CNS
[12] = tested on: SK-OV-3 ovarian
[13] = tested on: SW-620 colon
[14] = tested on: SNB-19 CNS
[15] = tested on: OVCAR-8 ovarian
[16] = tested on: MDA-MB-435
[17] = tested on: SR leukemia
[18] = tested on: HCT-15 colon
[19] = tested on: PC-3 prostate
[20] = tested on: KM12 colon
[21] = tested on: HOP-62 NSCLC
[22] = tested on: UO-31 renal
[23] = tested on: BT-549 breast
[24] = tested on: EKVX NSCLC
[25] = tested on: NCI-H460 lung
[26] = tested on: HL-60(TB) leukemia
[27] = tested on: SK-MEL-5 melanoma
[28] = tested on: SN12C renal
[29] = tested on: IGROV1 ovarian

O=c1[nH]c2ccc(N=Cc3c(O)[nH]c4ccccc34)cc2[nH]1
> 25 µM: TGI [1] | TGI [2] | TGI [3] | TGI [4] | TGI [5] | TGI [6] | TGI [7] | TGI [8] | TGI [9] | TGI [10] | TGI [11] | TGI [12] | TGI [13] | TGI [14] | TGI [15] | TGI [16] | TGI [17] | TGI [18] | TGI [19] | TGI [20] | TGI [21] | TGI [22] | TGI [23] | TGI [24] | TGI [25] | TGI [26] | TGI [27] | TGI [28] | TGI [29]
inactive: GI50 [1] > 25 µM | GI50 [2] > 25 µM | GI50 [3] > 25 µM | GI50 [4] > 25 µM | GI50 [5] > 20.4 µM | GI50 [6] > 25 µM | GI50 [7] 18.6 µM | GI50 [8] > 25 µM | GI50 [9] 23.2 µM | GI50 [10] > 25 µM | GI50 [11] > 14.7 µM | GI50 [12] > 25 µM | GI50 [13] > 25 µM | GI50 [14] > 25 µM | GI50 [15] > 25 µM | GI50 [16] > 25 µM | GI50 [17] > 25 µM | GI50 [18] > 25 µM | GI50 [19] > 25 µM | GI50 [20] > 25 µM | GI50 [21] > 17.7 µM | GI50 [22] > 25 µM | GI50 [23] > 25 µM | GI50 [24] > 25 µM | GI50 [25] > 25 µM | GI50 [26] > 25 µM | GI50 [27] > 25 µM | GI50 [28] > 25 µM | GI50 [29] > 25 µM
